Key:
[1] = system: PSA mRNA in parental LNCaP cells; experiment: PSA gene expression, Northern analysis of PSA mRNA; assay type: cell-based, human; details: for Relative PSA mRNA level: 48 h, control defined as 1.0; for steady-state levels of PSA mRNA: parental LNCaP cells, result in words
Procedure: FIG. 6A. The effect of PSA gene expression in parental LNCaP cells treated with a variety of growth factors. The parental LNCaP cells were incubated with agents as indicated (control cells were incubated with T medium containing 2% TCM). Forty-eight hours after treatment, total cellular RNA was prepared and 20 μg of total cellular RNA was subjected to Northern analysis. Relative PSA mRNA levels (in parenthesis) were determined by densitometrical quantification, and the control is defined as 1.0; (A) TGF-α 100 (0.98); TGF-α 10 (1.01); TGF-α 1 (1.15); bFGF 100 (1.22); bFGF 10 (1.04); bFGF 1 (0.97); TGF-β 0.01 (0.72); TGF-β 0.1 (0.84); TGF-β 1 (0.53); NGF 1 (1.13); NGF 100 (1.08),
FIG. 6B. The effect of PSA gene expression in parental LNCaP cells treated with a neuropeptide and a variety of α1 and β2-adrenergic agonists. I, bombesin 100 (0.62); bombesin 10 (0.89); II. isoproterenol 100 (0.51); isoproterenol 10 (1.11); isoproterenol 1 (1.07); III. dibutyryl cAMP 0.01 (1.09); dibutyryl cAMP 0.1 (1.11); dibutyryl cAMP 1.0 (1.23); IV. phenylephrine 1 (1.10); phenylephrine 10 (1.08); phenylephrine 100 (1.14).
Total cellular RNA was prepared from frozen tissues by the 4M guanidinium thiocyanate extraction method (Chomcjymski & Sacchi, 1987). Typical yields of total cellular RNA were about 300 μg/200 mg tissue as quantified spectrophotometrically using 40 μg RNA/A260 unit. RNA was denatured in 50% formamide/18% formaldehyde at 55° C. and fractionated by electrophoresis in a 0.9% denaturing formaldehyde agarose gel. Samples were transferred onto a Zetaprobe membrane (Bio-Rad) by capillary method, and the membrane was then baked for 2 hours at 80° C. The membrane was then prehybridized in the presence of 1M NaCl, 10% dextran sulfate, 1% SDS, and 200 μg/ml salmon sperm DNA for at least 2 hours at 65° C. Hybridization was carried out at 65° C. overnight with a random-primer-labeled probe as indicated. The PSA cDNA, and sequence specific hGK-1 and PSA oligonucleotide probes were obtained from Dr. D. Tindall (Mayo Clinic, Rochester, Minn.) (Lundwall & Lilja, 1987). Finally, the membrane was washed under high stringency conditions (0.5×SSC, 1% SDS at 65° C.). Autoradiograms were prepared by exposing Kodak X-Omat AR film to the membrane at -80° C. with intensifying screens.

prostate tumor cell = details: both in vitro and in vivo; cited from earlier work
[2] = prevents clinical use in human treatment; cited from earlier work

Question: Which results are given for `CCCC(=O)Nc1ncnc2c1ncn2[C@@H]1O[C@@H]2COP(=O)(O)O[C@H]2[C@H]1OC(=O)CCC` [dibutyryl cAMP]?
Answer: Relative PSA mRNA level ([1]; concentration 0.01 (unit not given)): 1.09; Relative PSA mRNA level ([1]; concentration 0.1 (unit not given)): 1.11; Relative PSA mRNA level ([1]; concentration 1.0 (unit not given)): 1.23; steady-state levels of PSA mRNA [1]: no apparent increases

Question: Which “Relative PSA mRNA level” value ([1]; concentration 1 (unit not given)) does the source give for `CC(C)NCC(O)c1ccc(O)c(O)c1` (centres unmarked) [isoproterenol] here?
Answer: Its value is 1.07.

Question: And the “Relative PSA mRNA level” value ([1]; concentration 10 (unit not given))?
Answer: The value was 1.11.

Question: What about the “Relative PSA mRNA level” value ([1]; concentration 100 (unit not given)) of the same molecule?
Answer: The value was 0.51.

Question: What about the “steady-state levels of PSA mRNA” value [1] of the same molecule?
Answer: Its value is “no apparent increases”.

Question: With `CNC[C@H](O)c1cccc(O)c1` [phenylephrine] as the molecule, how does the “steady-state levels of PSA mRNA” value [1] read?
Answer: Its value is “no apparent increases”.

Question: Which results are given for `Cc1ccc(C(=O)Nc2ccc(S(=O)(=O)O)c3cc(S(=O)(=O)O)cc(S(=O)(=O)O)c23)cc1NC(=O)c1cccc(NC(=O)Nc2cccc(C(=O)Nc3cc(C(=O)Nc4ccc(S(=O)(=O)O)c5cc(S(=O)(=O)O)cc(S(=O)(=O)O)c45)ccc3C)c2)c1` [suramin]?
Answer: prostate tumor cell growth (prostate tumor cell): inhibit prostate tumor cell growth; toxicity in vivo [2]: extreme toxicity
